Test results: patent US20250008959A1, “HERBICIDES AND USE THEREOF” (Projini Agchem LTD, priority 2021, published 2025)

Key:
[1] = target: T1, AtOASS (O-acetyl serine sulfhydrylase from Arabidopsis thaliana) (Arabidopsis thaliana, UniProt P47998); test: Isothermal titration calorimetry (ITC) binding to OASS; conditions: for Kd: OASS titrated into compound in ITC cell, single binding model; for direct binding to AtOASS by ITC (in vitro screening of purchased virtual hits): result in words
T1 construct: GST (N, cleaved yes); made in house; host or cells: E. coli Rosetta (DE3)
Excerpt: To evaluate the ability of the molecules to bind AtOASS (O-acetyl serine sulfhydrylase from Arabidopsis thaliana), the protein was placed in the ITC syringe and was titrated with the molecules that were placed in the ITC cell (see Examples section below). The direct dissociation binding constant (Kd) was then extracted from the binding curve using a single binding model, wherein a low Kd value corresponds to a stronger binding affinity.
To evaluate the binding of the small molecules to the enzyme OASS, the purified protein was placed in a 6-8 MWCO dialysis bag in 30 mM phosphate buffer, 30 mM NaCl, 1 mM TCEP, and 5% dimethyl sulfoxide. Sequential buffer exchange dialyses were executed for 12 hours each at 4° C. until dilution of >10,000 was achieved. Before the execution of the ITC binding experiment, the OASS was placed in the ITC syringe at a concentration of 400 μM and each of the small molecules was dissolved in the same dialysis buffer to a final concentration of 40 μM in the ITC cell. ITC experiments were conducted by titrating the OASS to the compounds in the cell. The ITC binding constant was evaluated using the build-in analysis software.
The designed de-novo herbicidal compounds were synthesized and evaluated for their in vitro and in planta activity. After dissolving the molecules to a stock of 50 mM in DMSO, binding and competition with the SAT-derived peptides were evaluated using ITC and FP. ITC measures the direct heat change occurring due to the interaction of a pair of molecules. ITC has certain advantages, such as the capability to detect a relatively broad range of binding affinities, being a label-free method, and providing a wide set of interaction parameters, such as affinity, stoichiometry, enthalpy, and entropy of binding. To evaluate the ability of the molecules to bind AtOASS, the protein was placed in the ITC syringe and was titrated with the molecules that were placed in the ITC cell. The direct dissociation binding constant (Kd) was then extracted from the binding curve using a single binding model. Two consecutive experiments were combined using the built in ITC module to enable better quantification. A low Kd value corresponds to a stronger binding affinity.

[2] = target: T2, OASS-SAT complex (AtOASS with SAT-derived peptide) (Arabidopsis thaliana, UniProt P47998); test: Fluorescence polarization (FP) competition with FITC-labeled SAT-derived peptide bound to OASS; assay type: binding; conditions: competition with FITC-SAT peptide 200 nM, OASS 2.2 μM; for IC50: single site inhibition model
T2 construct: GST (N, cleaved yes); made in house; host or cells: E. coli Rosetta (DE3)
Procedure: Molecules were also tested for their ability to compete with the OASS binding to the SAT-derived peptide via a fluorescence polarization (FP) competition assay wherein the N-terminus labeled peptide was incubated with the AtOASS (see Examples section below). High FP values correspond to the peptide-bound state (low molecule concentrations) and low FP values correspond to the peptide-free state (low FP values). To extract the IC50, the FP data were fitted to a single site inhibition model in PRISM by GraphPad Software. The corresponding IC50 values were extracted, whereas low IC50 values correspond to molecule that better competes with the peptide binding to AtOASS. Fluorescence polarization (FP) measurements were made on samples arrayed in 96-well plates by using BioTek H1 Synergy instrument equipped with FP module. […] The peptide in a concentration of 200 nM was incubated with OASS at a concentration of 2.2 μM in each well. Variable concentrations of each molecule starting from 100 μM down to 0.048 μM were added to evaluate the ability of each molecule to compete off the FITC labeled peptide bound to OASS. Fluorescence experiments were executed with an Em/Exc wavelengths of 480/520 nm. All measurements were done in triplicate. Experimental polarization data from simple and competitive binding experiments were fitted using GraphPad Prism, with error bars representing SD. Molecules were also tested for their ability to compete with the OASS binding to the SAT-derived peptide via a fluorescence polarization (FP) competition assay. The N-terminus labeled peptide was incubated with the AtOASS in each of the wells in a 96-well plate. Various concentrations of the molecules were added and the FP values were recorded. High FP values correspond to the peptide-bound state (low molecule concentrations) and low FP values correspond to the peptide-free state (low FP values). To extract the IC50, the FP data were fitted to a single site inhibition model in graphpad prism. The corresponding IC50 values were extracted. Low IC50 values correspond to molecule that better competes with the peptide binding to AtOASS.

Arabidopsis thaliana = test: Root elongation in plates (in planta root elongation assay); assay type: in vivo; conditions: 168 h, A. thaliana on MS medium plates, 7 days, read-out: Root-growth inhibition %
Procedure: 6-well plates were prepared in a biological hood with sterile half Murashige and Skoog mineral medium (MS; Duchefa, Haarlem, Netherlands) containing 1% sucrose (w/v), pH 5.8. Tested molecules were dissolved in 50 mM DMSO and diluted to various concentrations 1,000-fold greater than the final desired concentration the MS medium maintaining a final concentration of 0.1% DMSO. MS medium with 0.1% DMSO was used as a negative control. After 7 days the plates were scanned and the root length was calculated using the imageJ software. […] Further sterilization was done by washing the seeds with 50% hypochlorite and 0.2% Triton x-100 for 10 minutes followed by five cycles of washing with sterile water. Six seeds were placed in each well, and the plates were covered and sealed with parafilm. Plates were placed vertically at 4° C. for two days and then transferred to a growth chamber for seven days (22-24° C.) at day/light cycles of 16/8 hours. Following the in vitro evaluation, selected molecules were tested for their ability to inhibit A. thaliana root elongation on agar plates. Seeds were plated on medium containing the molecules dissolved in the indicated concentrations and root length was measured after 6 or 7 days when the root in the non-treated plate reached the end of the well.

T1 sequence (P47998 whole entry): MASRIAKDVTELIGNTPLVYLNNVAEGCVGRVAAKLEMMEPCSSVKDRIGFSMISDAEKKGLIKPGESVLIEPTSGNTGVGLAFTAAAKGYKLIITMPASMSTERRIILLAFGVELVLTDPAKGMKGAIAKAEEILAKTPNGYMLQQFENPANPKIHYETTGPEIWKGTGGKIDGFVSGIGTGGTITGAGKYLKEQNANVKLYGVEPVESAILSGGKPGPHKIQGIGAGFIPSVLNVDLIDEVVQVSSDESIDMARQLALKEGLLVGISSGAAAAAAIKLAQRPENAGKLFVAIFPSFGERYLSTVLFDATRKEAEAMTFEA
T2 sequence (P47998 whole entry, one chain of several): as the sequence (P47998 whole entry) above

O=C(O)c1cc2c(c(S(=O)(=O)Nc3cccc(-c4n[nH]c(C5CC5)n4)c3)c1)CCC2 [PJL-71]
Kd [1]: 6.11 µM | FP % inhibition [2]: 24% | IC50 [2]: 21 µM | inhibition at 50 µM (Arabidopsis thaliana): 17%

O=C(Nc1cccc(O)c1)c1cccc(NC(=O)c2ccccc2-c2ccccc2C(=O)O)c1 [PJL-63]
Kd [1]: 1.48 µM | FP % inhibition [2]: 34% | IC50 [2]: 6.3 µM | inhibition at 50 µM (Arabidopsis thaliana): 12%

O=C(O)c1ccccc1NS(=O)(=O)c1cnc(-c2ccccc2)s1 [PJL-83]
Kd [1]: 9.9 µM | FP % inhibition [2]: 17% | IC50 [2]: 74 µM | inhibition at 50 µM (Arabidopsis thaliana): 0%

O=C(O)c1cccc(NC2=C(Cl)C(=O)N(c3cc(Cl)ccc3Cl)C2=O)c1 [PJL-211]
Kd [1]: 11.6 µM | FP % inhibition [2]: 17% | IC50 [2]: 63.9 µM | inhibition at 50 µM (Arabidopsis thaliana): 72%

O=C(O)c1cc(F)ccc1NS(=O)(=O)c1cnn(-c2cccc(C(F)(F)F)c2)c1 [PJL-84]
Kd [1]: 10.9 µM | FP % inhibition [2]: 24% | IC50 [2]: 44 µM | inhibition at 50 µM (Arabidopsis thaliana): 47%

O=C(O)c1ccccc1-c1ccccc1C(=O)Nc1cccc(C(F)(F)F)c1 [PJS-212]
Kd [1]: 8.11 µM | FP % inhibition [2]: 34% | IC50 [2]: 10.6 µM | inhibition at 50 µM (Arabidopsis thaliana): 34%

NCCc1ccc(-c2csc(NC(=O)c3ccccc3-c3ccccc3C(=O)O)n2)cc1 [PJL-107]
Kd [1]: 0.32 µM | FP % inhibition [2]: 41% | IC50 [2]: 1.9 µM | inhibition at 50 µM (Arabidopsis thaliana): 29%

COc1ccc(-c2csc(NC(=O)c3ncccc3-c3ccccc3C(=O)O)n2)cc1 [PJL-127]
Kd [1]: 7.6 µM | FP % inhibition [2]: 38% | IC50 [2]: 15.3 µM | inhibition at 50 µM (Arabidopsis thaliana): 100%

COc1ccc(-c2csc(NC(=O)c3cc(C)ccc3-c3ccccc3C(=O)O)n2)cc1 [PJL-126]
Kd [1]: 3 µM | FP % inhibition [2]: 58% | IC50 [2]: 2.1 µM | inhibition at 50 µM (Arabidopsis thaliana): 93%

CCc1nnc(NC(=O)c2ccccc2-c2ccccc2C(=O)O)s1 [PJL-66]
Kd [1]: 8.6 µM | FP % inhibition [2]: 17% | IC50 [2]: 30.8 µM | inhibition at 50 µM (Arabidopsis thaliana): 0%

O=C(Nc1cccc(NC(=O)c2ccccc2-c2ccccc2C(=O)O)c1)c1ccco1 [PJL-60]
Kd [1]: 1.27 µM | FP % inhibition [2]: 32% | IC50 [2]: 4.8 µM | inhibition at 50 µM (Arabidopsis thaliana): 0%

O=C(O)c1cc(F)ccc1NS(=O)(=O)c1cnc(-c2ccc(F)cc2)s1 [PJL-41]
Kd [1]: 4.8 µM | direct binding to AtOASS by ITC (in vitro screening of purchased virtual hits) [1]: showed direct binding to AtOASS by ITC | FP % inhibition [2]: 19% | IC50 [2]: 34 µM | inhibition at 50 µM (Arabidopsis thaliana): 85%

CC(C)(C)NC(=O)c1ccc(NC(=O)c2ccccc2-c2ccccc2C(=O)O)cc1 [PJL-67]
Kd [1]: 2.38 µM | FP % inhibition [2]: 30% | IC50 [2]: 20.9 µM | inhibition at 50 µM (Arabidopsis thaliana): 9%

CC(C)CNC(=O)c1cccc(NC(=O)c2ccccc2-c2ccccc2C(=O)O)c1 [PJS-120]
direct binding to AtOASS by ITC (in vitro screening of purchased virtual hits) [1]: showed direct binding to AtOASS by ITC

COc1ccc(C(=O)O)c(NS(=O)(=O)c2cnn(-c3cccc(C(F)(F)F)c3)c2)c1 [PJL-114]
Kd [1]: 12 µM | FP % inhibition [2]: 17% | IC50 [2]: 41 µM

COc1ccc(C(=O)O)c(-c2ccccc2C(=O)Nc2nc(-c3ccc(Cl)cc3Cl)cs2)c1 [PJL-118]
Kd [1]: 2.3 µM | FP % inhibition [2]: 43% | IC50 [2]: 5.99 µM | inhibition at 50 µM (Arabidopsis thaliana): 47%

O=C(O)c1cc(F)ccc1NS(=O)(=O)c1cnc(-c2ccccc2)o1 [PJL-81]
Kd [1]: 28 µM | FP % inhibition [2]: 23% | IC50 [2]: 32 µM | inhibition at 50 µM (Arabidopsis thaliana): 15%

Cc1ccnn1-c1cccc(NS(=O)(=O)c2cc(C(=O)O)cc3c2CCC3)c1 [PJL-43]
Kd [1]: 9.9 µM | FP % inhibition [2]: 17% | IC50 [2]: 87 µM | inhibition at 50 µM (Arabidopsis thaliana): 6%

CC(C)n1nnc(-c2ccc(O)c(NC(=O)Cc3ccccc3C(=O)O)c2)n1 [PJL-208]
Kd [1]: 19.8 µM | FP % inhibition [2]: 16% | IC50 [2]: 97 µM | inhibition at 50 µM (Arabidopsis thaliana): 0%

Cc1cc(-c2cc(NC(=O)c3ccccc3-c3ccccc3C(=O)O)[nH]n2)ccc1OCCN1CCOCC1 [PJL-106]
Kd [1]: 0.94 µM | FP % inhibition [2]: 45% | IC50 [2]: 1.9 µM | inhibition at 50 µM (Arabidopsis thaliana): 0%

CC(C)Cc1ccc(-c2csc(NC(=O)c3ccccc3-c3ccccc3C(=O)O)n2)cc1 [PJL-108]
FP % inhibition [2]: 47% | IC50 [2]: 4.7 µM | inhibition at 50 µM (Arabidopsis thaliana): 17%

O=C(O)c1cccc(NC2=C(Cl)C(=O)N(c3ccc(Cl)c(Cl)c3)C2=O)c1 [PJL-103]
Kd [1]: 9.37 µM | FP % inhibition [2]: 21% | IC50 [2]: 73 µM | inhibition at 50 µM (Arabidopsis thaliana): 0%

O=C(Cc1ccccc1C(=O)O)Nc1cccc(C(=O)Nc2nccs2)c1 [PJL-93]
Kd [1]: 5.3 µM | FP % inhibition [2]: 21% | inhibition at 50 µM (Arabidopsis thaliana): 0%

COc1ccc(C(=O)O)cc1S(=O)(=O)Nc1ccc(NC(=O)CC(C)C)cc1 [PJL-30]
Kd [1]: 6.6 µM | FP % inhibition [2]: 11% | IC50 [2]: 300 µM | inhibition at 50 µM (Arabidopsis thaliana): 0%

CCn1nnc(-c2ccc(O)c(NC(=O)Cc3ccccc3C(=O)O)c2)n1 [PJL-88]
FP % inhibition [2]: 10% | IC50 [2]: 80 µM | inhibition at 50 µM (Arabidopsis thaliana): 0%

O=C(O)c1cc2c(c(S(=O)(=O)Nc3cc(Cl)c(Cl)c(C(=O)O)c3)c1)CCC2 [PJL-29]
Kd [1]: 3.5 µM | FP % inhibition [2]: 13% | IC50 [2]: 132 µM | inhibition at 50 µM (Arabidopsis thaliana): 11%

O=C(O)c1cc(F)ccc1NS(=O)(=O)c1cnn(-c2ccccc2F)c1 [PJL-5]
FP % inhibition [2]: 16% | IC50 [2]: 148 µM | inhibition at 50 µM (Arabidopsis thaliana): 56%

Cc1cn(-c2ccccc2)nc1NS(=O)(=O)c1cc(C(=O)O)cc2c1CCC2 [PJL-2]
FP % inhibition [2]: 11% | IC50 [2]: 236 µM | inhibition at 50 µM (Arabidopsis thaliana): 70%

O=C(O)c1cc2c(c(S(=O)(=O)Nc3cccc(-c4noc(C5CCCO5)n4)c3)c1)CCC2 (stereo not drawn) [PJL-69]
Kd [1]: 8.12 µM | FP % inhibition [2]: 21%

CC(C)c1n[nH]c(-c2ccc(NC(=O)Cc3ccccc3C(=O)O)cc2)n1 [PJL-95]
FP % inhibition [2]: 27% | IC50 [2]: 22 µM | inhibition at 50 µM (Arabidopsis thaliana): 10%

O=C(O)c1cc(NS(=S)(=S)c2cnc(-c3ccc(F)cc3)s2)c(F)cc1F [PJL-27]
FP % inhibition [2]: 11% | IC50 [2]: 188 µM | inhibition at 50 µM (Arabidopsis thaliana): 25%

Nc1cc(F)ccc1-c1csc(NC(=O)c2ccccc2-c2ccccc2C(=O)O)n1 [PJL-111]
FP % inhibition [2]: 45% | inhibition at 50 µM (Arabidopsis thaliana): 66%

O=C(O)c1ccccc1-c1cccnc1C(=O)Nc1nc(-c2ccc(Cl)cc2Cl)cs1 [PJL-115]
FP % inhibition [2]: 36% | IC50 [2]: 12 µM | inhibition at 50 µM (Arabidopsis thaliana): 96%
